The source of these data is patent US11873290B2, “Pyridazinone compounds and uses thereof” (Edgewise Therapeutics, Inc., priority 2018, dated 2024).

The target in the assay is skeletal myofibrils (myosin ATPase activity). The assay can be described thus: Skeletal Myofibril ATPase Assay. Format: biochemical. To be noted: PK-LDH coupled, absorbance at 340 nm. The method, then: Overview: Myosin ATPase activity is assessed by using a coupled reaction system, in which ADP generated by the myosin ATPase function is coupled to the disappearance of NADH through the pyruvate kinase/lactate dehydrogenase (PK-LDH) system. Myosin ATPase activity produces ADP, which is used as a substrate for PK to produce pyruvate and regenerate ATP. The pyruvate is then used as a substrate by LDH to oxidize NADH to NAD+. The rate of the reaction is monitored through the time-dependent disappearance of NADH using absorbance at 340 nm. Inhibition of ATPase activity by the assayed compounds is indicated by a reduced rate of NADH loss, relative to vehicle-treated controls, over the experimental time window. To assess the selectivity of the assayed compounds for skeletal myofibrils, the compounds are counter-screened in cardiac myofibrils.
Materials: The following stock solutions and reagents were used in the Skeletal Myofibril ATPase Assay:
Stock Solutions of pCa buffer. Combine PIPES, CaCl2, and EGTA solutions with 70 mL of water. Adjust pH to 7.0 and bring final volume to 100 mL.
Skeletal Myofibril ATPase Assay Procedure: BSA, ATP, NADH, PEP, and DTT solutions were thawed at room temperature, then transferred to ice. Pellet-frozen myofibrils (approximately twice the required volume) were transferred into a sufficiently large tube and capped. Myofibrils were thawed by rolling in a water bath for approximately 15 min at room temperature and cooled on ice. Buffers A and B were prepared by adjusting volumes as necessary for required number of wells and stored on ice. 0.5 μL of the compounds to be assayed were added into wells of a 384-well plate. Buffers A and B were mixed by inversion immediately prior to use, then 25 μL of each was dispensed using a Multidrop dispenser (Buffer A first, then Buffer B). The absorbance within the wells was measured at 340 nm, using a kinetic protocol in which the wells are read every 1.5-2 min for 1 h. The reaction rate was qualitatively assessed by subtracting the minimum absorbance value from the maximum value for each well, using either the SoftMax Pro plate reader software or a spreadsheet program such as Excel. Using GraphPad Prism 8.0, the data was normalized, with 100% activity defined as the absorbance change in the 1% DMSO vehicle wells and 0% assigned to no change in absorbance over the course of the experiment. The normalized data were fit to a variable-slope four-parameter logistic model, constraining the bottom to be 0 or greater. Compounds of Table 1 to 4 were tested and results of the assay appear in Table 5 herein. A=IC50 is less than or equal to 10 μM; B=IC50 is greater than 10 μM and less than 100 μM; C=IC50 is greater than 100 μM; […].
What is called IC50 is the point on the concentration scale where inhibition reaches its midpoint. Read a low IC50 as greater potency. Molecule `O=c1ccc(-c2cnc(OCC(F)(F)F)nc2)nn1Cc1cncc(Cl)c1` [Compound 1, 2-((5-chloropyridin-3-yl)methyl)-6-(2-(2,2,2-trifluoroethoxy)pyrimidin-5-yl)pyridazine-3(2H)-one] returned an IC50 of less than 10 µM.

With `O=c1ccc(-c2ccc(OC(F)F)nc2)nn1Cc1cncc(Cl)c1` [Compound 2], the IC50 is less than 10 µM.

In turn, `O=c1ccc(-c2cnc(OCC(F)(F)F)nc2)nn1Cc1cncc(F)c1` [Compound 6, 2-((5-fluoropyridin-3-yl)methyl)-6-(2-(2,2,2-trifluoroethoxy)pyrimidin-5-yl)pyridazine-3(2H)-one] yielded a half-maximal inhibitory concentration (IC50) of less than 10 µM.

For the molecule `O=c1ccc(-c2ccc(OC(F)F)nc2)nn1Cc1cncc(F)c1` [Compound 9], the IC50 was less than 10 µM.

In turn, `O=c1ccc(-c2ccc(OC(F)F)nc2)nn1Cc1cccnc1` [Compound 10] came in with an IC50 of 10 to 100 µM.

The molecule `O=c1ccc(-c2ccc(OC(F)F)nc2)nn1Cc1nnc(-c2ccc(F)cc2)s1` [Compound 17] had an IC50 of less than 10 µM.

As to `O=c1ccc(-c2ccc(OC(F)F)nc2)nn1Cc1nnc(-c2ccccc2)s1` [Compound 22], the IC50 was less than 10 µM.

Molecule `O=c1ccc(-c2ccc(OC(F)F)nc2)nn1Cc1cn[nH]c1-c1ccccc1` [Compound 23, 6-(6-(difluoromethoxy)pyridin-3-yl)-2-((5-phenyl-1H-pyrazol-4-yl)methyl)pyridazin-3(2H)-one] showed an IC50 greater than 100 µM.

The molecule `O=c1ccc(-c2ccc(OC(F)F)nc2)nn1Cc1ocnc1-c1ccccc1` [Compound 24, 6-(6-(difluoromethoxy)pyridin-3-yl)-2-((4-phenyloxazol-5-yl)methyl)pyridazin-3(2H)-one] registered an IC50 greater than 100 µM.

As for `O=c1ccc(-c2ccc(OC(F)F)nc2)nn1Cc1[nH]ncc1-c1ccccc1` [Compound 25, 6-(6-(difluoromethoxy)pyridin-3-yl)-2-((4-phenyl-1H-pyrazol-5-yl)methyl) pyridazin-3(2H)-one], the IC50 was greater than 100 µM.

As to `O=c1ccc(-c2cnc(OCC(F)(F)F)nc2)nn1Cc1cc(C(F)F)no1` [Compound 26, 2-((3-(difluoromethyl)isoxazol-5-yl)methyl)-6-(2-(2,2,2-trifluoroethoxy)pyrimidin-5-yl)pyridazin-3(2H)-one], the IC50 is less than 10 µM.

In the case of `O=c1ccc(-c2cnc(OCC(F)(F)F)nc2)nn1Cc1cc(-c2ccccc2)no1` [Compound 27, 2-((3-phenylisoxazol-5-yl)methyl)-6-(2-(2,2,2-trifluoroethoxy)pyrimidin-5-yl)pyridazin-3(2H)-one], the IC50 is less than 10 µM.

For the molecule `CC1CCCN1c1ncc(-c2ccc(=O)n(Cc3cncc(F)c3)n2)cn1` (stereo not drawn) [Compound 28, 2-((5-fluoropyridin-3-yl)methyl)-6-(2-(2-methylpyrrolidin-l-yl)pyrimidin-5-yl)pyridazin-3(2H)-one], the IC50 was less than 10 µM.

`O=c1ccc(-c2cnc(OCC(F)(F)F)nc2)nn1Cc1cc(-c2ccccn2)no1` [Compound 30, 2-((3-(pyridin-2-yl)isoxazol-5-yl)methyl)-6-(2-(2,2,2-trifluoroethoxy)pyrimidin-5-yl)pyridazin-3(2H)-one] showed an IC50 of less than 10 µM.

Molecule `O=c1ccc(-c2cnc(OCC(F)(F)F)nc2)nn1Cc1cc(C2CC2)no1` [Compound 31, 2-((3-cyclopropylisoxazol-5-yl)methyl)-6-(2-(2,2,2-trifluoroethoxy)pyrimidin-5-yl)pyridazin-3(2H)-one] registered an IC50 of less than 10 µM.

In turn, `NC(=O)c1cc(Cn2nc(-c3cnc(OCC(F)(F)F)nc3)ccc2=O)on1` [Compound 32, 5-((6-oxo-3-(2-(2,2,2-trifluoroethoxy)pyrimidin-5-yl)pyridazin-1(6H)-yl)methyl)isoxazole-3-carboxamide] came in with an IC50 of less than 10 µM.

The molecule `CC(=O)c1cc(Cn2nc(-c3cnc(OCC(F)(F)F)nc3)ccc2=O)on1` [Compound 33, 2-((3-acetylisoxazol-5-yl)methyl)-6-(2-(2,2,2-trifluoroethoxy)pyrimidin-5-yl)pyridazin-3(2H)-one] gave an IC50 of less than 10 µM.

The molecule `Cc1cnoc1Cn1nc(-c2cnc(OCC(F)(F)F)nc2)ccc1=O` [Compound 34, 2-((4-methylisoxazol-5-yl)methyl)-6-(2-(2,2,2-trifluoroethoxy)pyrimidin-5-yl)pyridazin-3(2H)-one] showed an IC50 of less than 10 µM.

Regarding `CCOC(=O)c1cc(Cn2nc(-c3cnc(OCC(F)(F)F)nc3)ccc2=O)on1` [Compound 37, ethyl 5-((6-oxo-3-(2-(2,2,2-trifluoroethoxy)pyrimidin-5-yl)pyridazin-1(6H)-yl)methyl) isoxazole-3-carboxylate], the IC50 was less than 10 µM.

`O=c1ccc(-c2cnc(OCC(F)(F)F)nc2)nn1Cc1nnc(-c2ccccn2)s1` [Compound 38, 2-((5-(pyridin-2-yl)-1,3,4-thiadiazol-2-yl)methyl)-6-(2-(2,2,2-trifluoroethoxy)pyrimidin-5-yl)pyridazin-3(2H)-one] registered an IC50 of less than 10 µM.

As for `Cc1c(-c2ccccc2)noc1Cn1nc(-c2cnc(OCC(F)(F)F)nc2)ccc1=O` [Compound 39, 2-((4-methyl-3-phenylisoxazol-5-yl)methyl)-6-(2-(2,2,2-trifluoroethoxy)pyrimidin-5-yl)pyridazin-3(2H)-one], the IC50 was less than 10 µM.

On to `O=c1ccc(-c2cnc(OCC(F)(F)F)nc2)nn1Cc1nnc(-c2cccnc2)s1` [Compound 40, 2-((5-(pyridin-3-yl)-1,3,4-thiadiazol-2-yl)methyl)-6-(2-(2,2,2-trifluoroethoxy)pyrimidin-5-yl)pyridazin-3(2H)-one], for which the IC50 is less than 10 µM.

In turn, `Cc1ccc(Cn2nc(-c3cnc(OCC(F)(F)F)nc3)ccc2=O)nn1` [Compound 41, 2-((6-methylpyridazin-3-yl)methyl)-6-(2-(2,2,2-trifluoroethoxy)pyrimidin-5-yl)pyridazin-3(2H)-one] returned an IC50 of less than 10 µM.

Molecule `O=c1ccc(-c2cnc(OCC(F)(F)F)nc2)nn1Cc1ccnc(O)c1` [Compound 42, 2-((2-hydroxypyridin-4-yl)methyl)-6-(2-(2,2,2-trifluoroethoxy)pyrimidin-5-yl)pyridazin-3(2H)-one] had an IC50 of 10 to 100 µM.

As to `O=c1ccc(-c2cnc(OCC(F)(F)F)nc2)nn1Cc1cc(CO)no1` [Compound 43, 2-((3-(hydroxymethyl)isoxazol-5-yl)methyl)-6-(2-(2,2,2-trifluoroethoxy)pyrimidin-5-yl)pyridazin-3(2H)-one], the half-inhibitory concentration (IC50) fell in the range of 10 to 100 µM.

`O=c1ccc(-c2cnc(OCC(F)(F)F)nc2)nn1Cc1nnc(-c2ccnc(O)c2)s1` [Compound 44, 2-((5-(2-hydroxypyridin-4-yl)-1,3,4-thiadiazol-2-yl)methyl)-6-(2-(2,2,2-trifluoroethoxy)pyrimidin-5-yl)pyridazin-3(2H)-one]: the IC50 was in the range of 10 to 100 µM.

With `O=c1ccc(-c2cnc(OCC(F)(F)F)nc2)nn1Cc1nnc(-c2ccc(O)nc2)s1` [Compound 45, 2-((5-(6-hydroxypyridin-3-yl)-1,3,4-thiadiazol-2-yl)methyl)-6-(2-(2,2,2-trifluoroethoxy)pyrimidi-5-yl)pyridazin-3(2H)-one], the IC50 was in the range of 10 to 100 µM.

Turning to `O=c1ccc(-c2cnc(OCC(F)(F)F)nc2)nn1Cc1cccc(O)n1` [Compound 46, 2-((6-hydroxypyridin-2-yl)methyl)-6-(2-(2,2,2-trifluoroethoxy)pyrimidin-5-yl)pyridazin-3(2H)-one], the IC50 is greater than 100 µM.

For the molecule `O=c1ccc(-c2cnc(OCC(F)(F)F)nc2)nn1Cc1cccnc1O` [Compound 47, 2-((2-hydroxypyridin-3-yl)methyl)-6-(2-(2,2,2-trifluoroethoxy)pyrimidin-5-yl)pyridazin-3(2H)-one], the IC50 was greater than 100 µM.

The molecule `Cc1noc(Cn2nc(-c3cnc(OCC(F)(F)F)nc3)ccc2=O)c1C` [Compound 49, 2-((3,4-dimethylisoxazol-5-yl)methyl)-6-(2-(2,2,2-trifluoroethoxy)pyrimidin-5-yl)pyridazin-3(2H)-one] registered an IC50 greater than 100 µM.

In turn, `CN(CC(F)(F)F)c1ncc(-c2ccc(=O)n(Cc3cncc(F)c3)n2)cn1` [Compound 50, 2-((5-fluoropyridin-3-yl)methyl)-6-(2-(methyl(2,2,2-trifluoroethyl)amino)pyrimidin-5-yl)pyridazin-3(2H)-one] showed an IC50 of less than 10 µM.

Molecule `N#Cc1cncc(Cn2nc(-c3cnc(OCC(F)(F)F)nc3)ccc2=O)c1` [Compound 51, 5-((6-oxo-3-(2-(2,2,2-trifluoroethoxy)pyrimidin-5-yl)pyridazin-1(6H)-yl)methyl)nicotinonitrile] came in with an IC50 of less than 10 µM.
